In general, IC50 refers to the concentration that inhibits the measured activity by half.

Structures are written as SMILES. Where a SMILES comes first, the peptide text is derived from it. Bridges are numbered along the chain shown (N, C = ends). [ ]: non-standard residue; d: D form. The star is where a group is joined. ξ: configuration not given here. Phe(4-COOH) = N[C@@H](Cc1ccc(C(=O)O)cc1)C(=O)O; Bip = N[C@@H](Cc1ccc(-c2ccccc2)cc1)C(=O)O; Phe(3-Me) = Cc1cccc(C[C@H](N)C(=O)O)c1; Val(3-OH) = CC(C)(O)[C@H](N)C(=O)O; 4Pal = N[C@@H](Cc1ccncc1)C(=O)O; Cha = N[C@@H](CC1CCCCC1)C(=O)O; Cit = NC(=O)NCCC[C@H](N)C(=O)O; Ile(3ξ) = CCC(C)[C@H](N)C(=O)O; Carboxymethyl = O=C(O)C*; NMeA = CN[C@@H](C)C(=O)O; Orn = NCCC[C@H](N)C(=O)O; Aun = NCCCCCCCCCCC(=O)O; Dab = NCC[C@H](N)C(=O)O; AEEA = NCCOCCOCC(=O)O

Twelve compounds from patent publication US20260070945A1, “MACROCYCLIC IMMUNOMODULATORS” (Bristol-Myers Squibb Company, priority 2022, published 2026) can be followed below.

For the experiment, the target named is T1, PD-1/PD-L1 interaction (PE-labeled human PD-L1-Ig binding to Jurkat cell line over-expressing human PD-1) (Homo sapiens, UniProt Q15116).
T1 construct: expressed in transfected cells; host or cells: Jurkat
T1 sequence (Q15116 25-288): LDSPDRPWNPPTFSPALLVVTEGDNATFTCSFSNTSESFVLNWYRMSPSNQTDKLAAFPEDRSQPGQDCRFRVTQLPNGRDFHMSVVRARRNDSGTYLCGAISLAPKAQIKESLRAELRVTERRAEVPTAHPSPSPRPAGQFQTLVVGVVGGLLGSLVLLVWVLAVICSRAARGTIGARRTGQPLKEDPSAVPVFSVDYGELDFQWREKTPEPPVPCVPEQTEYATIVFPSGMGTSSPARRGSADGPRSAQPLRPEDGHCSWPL
The experiment is described as follows: Jurkat-PD-1 Cell Binding High-Content Screening Assay (CBA). The conditions noted are these: Jurkat-hPD-1 cells, PE-labeled PD-L1-Ig 20 nM final; read-out: Jurkat HPD1 PDL1 IC50. In short, it runs like this: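 Jurkat-hPD-1 cells (8×10^3/well) in DMEM with 10% fetal calf serum were preincubated with compound for 2 h at 37 °C. PE-labeled PD-L1-Ig was then added at 20 nM final for 1 h. Cells were fixed in paraformaldehyde with Hoechst 33342, washed and imaged by high-content imaging.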
On to `Cc1cccc(C[C@@H]2NC(=O)[C@H](CC(=O)O)NC(=O)[C@H](Cc3ccc(C(=O)O)cc3)NC(=O)[C@H](Cc3ccncc3)NC(=O)CSC[C@@H](C(=O)N[C@@H](CCN)C(=O)NCCOCCOCC(=O)NCCCCCCCCCCC(=O)O)NC(=O)[C@H](CCCN)NC(=O)[C@H](C(C)C)NC(=O)[C@H](CC3CCCCC3)NC(=O)[C@H](CCN)NC(=O)[C@@H](CC(C)C)NC(=O)[C@H](C)N(C)C(=O)[C@H](Cc3ccc(OCC(=O)O)cc3)NC(=O)[C@H](Cc3ccc(-c4ccccc4)cc3)NC(=O)[C@H](Cc3ccc(OCC(=O)O)cc3)NC2=O)c1` [Example 1405] ({CH2CO}-[4Pal][Phe(4-COOH)]D[Phe(3-Me)]Y(Carboxymethyl)[Bip]Y(Carboxymethyl)[NMeA][dL][Dab][Cha]V[Orn]C[Dab][AEEA][Aun]-OH; thioether N-14), for which the IC50 is 23.6 nM.
Turning to `Cc1cccc(C[C@@H]2NC(=O)[C@H](CC(=O)O)NC(=O)[C@H](Cc3ccc(C(=O)O)cc3)NC(=O)[C@H](Cc3ccncc3)NC(=O)CSC[C@@H](C(=O)N[C@@H](CCN)C(=O)NCCOCCOCC(=O)NCCCCCCCCCCC(=O)O)NC(=O)[C@H](CCCN)NC(=O)[C@H](C(C)C)NC(=O)[C@H](CC3CCCCC3)NC(=O)[C@H](CCN)NC(=O)[C@@H](CC(C)C)NC(=O)[C@H](C)N(C)C(=O)[C@H](CCCNC(N)=O)NC(=O)[C@H](Cc3ccc(-c4ccccc4)cc3)NC(=O)[C@H](Cc3ccc(OCC(=O)O)cc3)NC2=O)c1` [Example 1406] ({CH2CO}-[4Pal][Phe(4-COOH)]D[Phe(3-Me)]Y(Carboxymethyl)[Bip][Cit][NMeA][dL][Dab][Cha]V[Orn]C[Dab][AEEA][Aun]-OH; thioether N-14), the IC50 was 51.1 nM.
The same measure for `CCC(C)[C@@H]1NC(=O)[C@H](Cc2ccc(-c3ccccc3)cc2)NC(=O)[C@H](Cc2ccc(OCC(=O)O)cc2)NC(=O)[C@H](Cc2cccc(C)c2)NC(=O)[C@H](CC(=O)O)NC(=O)[C@H](Cc2ccc(C(=O)O)cc2)NC(=O)[C@H](Cc2ccncc2)NC(=O)CSC[C@@H](C(=O)N[C@@H](CCN)C(=O)NCCOCCOCC(=O)NCCCCCCCCCCC(=O)O)NC(=O)[C@H](CCCN)NC(=O)[C@H](C(C)C)NC(=O)[C@H](CC2CCCCC2)NC(=O)[C@H](CCN)NC(=O)[C@@H](CC(C)C)NC(=O)[C@H](C)N(C)C1=O` (stereo partly drawn) [Example 1407] ({CH2CO}-[4Pal][Phe(4-COOH)]D[Phe(3-Me)]Y(Carboxymethyl)[Bip][Ile(3ξ)][NMeA][dL][Dab][Cha]V[Orn]C[Dab][AEEA][Aun]-OH; thioether N-14): 89.9 nM.
In the case of `Cc1cccc(C[C@@H]2NC(=O)[C@H](CC(=O)O)NC(=O)[C@H](Cc3ccc(OCC(=O)O)cc3)NC(=O)[C@H]([C@@H](C)O)NC(=O)CSC[C@@H](C(=O)N[C@@H](CCN)C(=O)NCCOCCOCC(=O)NCCCCCCCCCCC(=O)O)NC(=O)[C@H](CCC(=O)O)NC(=O)[C@H](C(C)(C)O)NC(=O)[C@H](CC3CCCCC3)NC(=O)[C@H](CCN)NC(=O)[C@@H](CC(C)C)NC(=O)[C@H](C)N(C)C(=O)[C@H](Cc3ccc(OCC(=O)O)cc3)NC(=O)[C@H](Cc3ccc(-c4ccccc4)cc3)NC(=O)[C@H](Cc3ccc(OCC(=O)O)cc3)NC2=O)c1` [Example 1408] ({CH2CO}-TY(Carboxymethyl)D[Phe(3-Me)]Y(Carboxymethyl)[Bip]Y(Carboxymethyl)[NMeA][dL][Dab][Cha][Val(3-OH)]EC[Dab][AEEA][Aun]-OH; thioether N-14), the IC50 was 28.9 nM.
The same measure for `CCC(C)[C@@H]1NC(=O)[C@H](Cc2ccc(-c3ccccc3)cc2)NC(=O)[C@H](CC(C)C)NC(=O)[C@H](Cc2c[nH]c3ccccc23)NC(=O)[C@H](CC(=O)O)NC(=O)[C@H](Cc2ccc(C(=O)O)cc2)NC(=O)[C@H](Cc2ccc(OCC(=O)O)cc2)NC(=O)CSC[C@@H](C(=O)N[C@@H](CC(N)=O)C(=O)NCCOCCOCC(=O)NCCCCCCCCCCC(=O)O)NC(=O)[C@H](CO)NC(=O)[C@H](C(C)(C)O)NC(=O)[C@H](CC2CCCCC2)NC(=O)[C@H](CCN)NC(=O)[C@@H](CC(C)C)NC(=O)[C@H](C)N(C)C1=O` (stereo partly drawn) [Example 1409] ({CH2CO}-Y(Carboxymethyl)[Phe(4-COOH)]DWL[Bip][Ile(3ξ)][NMeA][dL][Dab][Cha][Val(3-OH)]SCN[AEEA][Aun]-OH; thioether N-14): 23.7 nM; for `CCC(C)[C@@H]1NC(=O)[C@H](Cc2ccc(-c3ccccc3)cc2)NC(=O)[C@H](CC(C)C)NC(=O)[C@H](Cc2c[nH]c3ccccc23)NC(=O)[C@H](CC(=O)O)NC(=O)[C@H](Cc2ccc(C(=O)O)cc2)NC(=O)[C@H](Cc2ccc(OCC(=O)O)cc2)NC(=O)CSC[C@@H](C(=O)N[C@@H](CCN)C(=O)NCCOCCOCC(=O)NCCCCCCCCCCC(=O)O)NC(=O)[C@H](CO)NC(=O)[C@H](C(C)(C)O)NC(=O)[C@H](CC2CCCCC2)NC(=O)[C@H](CCN)NC(=O)[C@@H](CC(C)C)NC(=O)[C@H](C)N(C)C1=O` (stereo partly drawn) [Example 1410] ({CH2CO}-Y(Carboxymethyl)[Phe(4-COOH)]DWL[Bip][Ile(3ξ)][NMeA][dL][Dab][Cha][Val(3-OH)]SC[Dab][AEEA][Aun]-OH; thioether N-14): 16.2 nM; for `CC(C)C[C@@H]1NC(=O)[C@H](Cc2c[nH]c3ccccc23)NC(=O)[C@H](CC(=O)O)NC(=O)[C@H](Cc2ccc(C(=O)O)cc2)NC(=O)[C@H](Cc2ccc(OCC(=O)O)cc2)NC(=O)CSC[C@@H](C(=O)N[C@@H](CCN)C(=O)NCCOCCOCC(=O)NCCCCCCCCCCC(=O)O)NC(=O)[C@H](CO)NC(=O)[C@H](C(C)(C)O)NC(=O)[C@H](CC2CCCCC2)NC(=O)[C@H](CCN)NC(=O)[C@@H](CC(C)C)NC(=O)[C@H](C)N(C)C(=O)[C@H](C(C)C)NC(=O)[C@H](Cc2ccc(-c3ccccc3)cc2)NC1=O` [Example 1411] ({CH2CO}-Y(Carboxymethyl)[Phe(4-COOH)]DWL[Bip]V[NMeA][dL][Dab][Cha][Val(3-OH)]SC[Dab][AEEA][Aun]-OH; thioether N-14): 9.7 nM.
Turning to `Cc1cccc(C[C@@H]2NC(=O)[C@H](CC(=O)O)NC(=O)[C@H](Cc3ccncc3)NC(=O)[C@H](Cc3ccc(OCC(=O)O)cc3)NC(=O)CSC[C@@H](C(=O)N[C@@H](CCN)C(=O)NCCOCCOCC(=O)NCCCCCCCCCCC(=O)O)NC(=O)[C@H](CO)NC(=O)[C@H](C(C)(C)O)NC(=O)[C@H](CC3CCCCC3)NC(=O)[C@H](CCN)NC(=O)[C@@H](CC(C)C)NC(=O)[C@H](C)N(C)C(=O)[C@H](Cc3ccc(OCC(=O)O)cc3)NC(=O)[C@H](Cc3ccc(-c4ccccc4)cc3)NC(=O)[C@H](Cc3ccc(OCC(=O)O)cc3)NC2=O)c1` [Example 1412] ({CH2CO}-Y(Carboxymethyl)[4Pal]D[Phe(3-Me)]Y(Carboxymethyl)[Bip]Y(Carboxymethyl)[NMeA][dL][Dab][Cha][Val(3-OH)]SC[Dab][AEEA][Aun]-OH; thioether N-14), the IC50 is 207 nM.
Regarding `CC(C)C[C@@H]1NC(=O)[C@H](Cc2c[nH]c3ccccc23)NC(=O)[C@H](CC(=O)O)NC(=O)[C@H](Cc2ccc(C(=O)O)cc2)NC(=O)[C@H](Cc2ccc(OCC(=O)O)cc2)NC(=O)CSC[C@@H](C(=O)N[C@@H](CC(N)=O)C(=O)NCCOCCOCC(=O)NCCCCCCCCCCC(=O)O)NC(=O)[C@H](CO)NC(=O)[C@H](C(C)(C)O)NC(=O)[C@H](CC2CCCCC2)NC(=O)[C@H](CCN)NC(=O)[C@@H](CC(C)C)NC(=O)[C@H](C)N(C)C(=O)[C@H](C(C)C)NC(=O)[C@H](Cc2ccc(-c3ccccc3)cc2)NC1=O` [Example 1413] ({CH2CO}-Y(Carboxymethyl)[Phe(4-COOH)]DWL[Bip]V[NMeA][dL][Dab][Cha][Val(3-OH)]SCN[AEEA][Aun]-OH; thioether N-14), the IC50 is 18.1 nM.
The same measure for `CCC(C)[C@@H]1NC(=O)[C@H](Cc2ccc(-c3ccccc3)cc2)NC(=O)[C@H](CC(C)C)NC(=O)[C@H](Cc2c[nH]c3ccccc23)NC(=O)[C@H](CC(=O)O)NC(=O)[C@H](Cc2ccc(C(=O)O)cc2)NC(=O)[C@H](Cc2ccc(OCC(=O)O)cc2)NC(=O)CSC[C@@H](C(=O)N[C@@H](CCN)C(=O)NCCOCCOCC(=O)NCCCCCCCCCCC(=O)O)NC(=O)[C@H](CCC(=O)O)NC(=O)[C@H](C(C)(C)O)NC(=O)[C@H](CC2CCCCC2)NC(=O)[C@H](CCN)NC(=O)[C@@H](CC(C)C)NC(=O)[C@H](C)N(C)C1=O` (stereo partly drawn) [Example 1414] ({CH2CO}-Y(Carboxymethyl)[Phe(4-COOH)]DWL[Bip][Ile(3ξ)][NMeA][dL][Dab][Cha][Val(3-OH)]EC[Dab][AEEA][Aun]-OH; thioether N-14): 3 nM.
Next, `Cc1cccc(C[C@@H]2NC(=O)[C@H](CC(=O)O)NC(=O)[C@H](Cc3ccc(OCC(=O)O)cc3)NC(=O)[C@H]([C@@H](C)O)NC(=O)CSC[C@@H](C(=O)N[C@@H](CC(N)=O)C(=O)NCCOCCOCC(=O)NCCCCCCCCCCC(=O)O)NC(=O)[C@H](CCC(=O)O)NC(=O)[C@H](C(C)(C)O)NC(=O)[C@H](CC3CCCCC3)NC(=O)[C@H](CCN)NC(=O)[C@@H](CC(C)C)NC(=O)[C@H](C)N(C)C(=O)[C@H](Cc3ccc(OCC(=O)O)cc3)NC(=O)[C@H](Cc3ccc(-c4ccccc4)cc3)NC(=O)[C@H](Cc3ccc(OCC(=O)O)cc3)NC2=O)c1` [Example 1415] ({CH2CO}-TY(Carboxymethyl)D[Phe(3-Me)]Y(Carboxymethyl)[Bip]Y(Carboxymethyl)[NMeA][dL][Dab][Cha][Val(3-OH)]ECN[AEEA][Aun]-OH; thioether N-14): 172 nM; `Cc1cccc(C[C@@H]2NC(=O)[C@H](CC(=O)O)NC(=O)[C@H](Cc3ccc(OCC(=O)O)cc3)NC(=O)[C@H]([C@@H](C)O)NC(=O)CSC[C@@H](C(=O)N[C@H](CC(N)=O)C(=O)NCCOCCOCC(=O)NCCCCCCCCCCC(=O)O)NC(=O)[C@H](CCC(=O)O)NC(=O)[C@H](C(C)(C)O)NC(=O)[C@H](CC3CCCCC3)NC(=O)[C@H](CCN)NC(=O)[C@@H](CC(C)C)NC(=O)[C@H](C)N(C)C(=O)[C@H](Cc3ccc(OCC(=O)O)cc3)NC(=O)[C@H](Cc3ccc(-c4ccccc4)cc3)NC(=O)[C@H](Cc3ccc(OCC(=O)O)cc3)NC2=O)c1` [Example 1416] ({CH2CO}-TY(Carboxymethyl)D[Phe(3-Me)]Y(Carboxymethyl)[Bip]Y(Carboxymethyl)[NMeA][dL][Dab][Cha][Val(3-OH)]EC[dN][AEEA][Aun]-OH; thioether N-14): 311 nM.
